Key:
PI2 virus [1] = assay: Inhibition of plaque formation on Vero cells (viral entry), PI2; assay type: cell-based, parainfluenza virus type 2
Method: (§1) Inhibition of plaque formation. A series of 2-fold dilutions of F peptides together with appropriately diluted PI2 or PI3 virus were added to monolayers of Vero cells. After 1 h incubation at 37° C., the inoculum was removed and overlaid with 2% white agar mixed at 1:1 ratio with 2XDMEM containing 2% FBS. Three days after overlying, red agar mixed at a 1:1 ratio with 2XDMEM containing 2% FBS was overlaid to stain the cells. Plaque numbers were counted one day after neutral red staining and recorded. The Reed-Muench method of estimating 50% endpoint [Welkos, S. et al., (1994) Methods in Enzymology. 235:29-39] was used to calculate the F peptide 50% effective concentration (EC50) value.
(§2) F peptides inhibit viral spread. To determine whether the F peptide interferes with the viral entry process, a plaque assay was performed by inoculating cells with virus and peptide together at 37° C. for 1 h, and then overlaying with agar without the addition of peptide. At 10^4 dilution of the PI2 virus stock, 80 μM of the 2F1B34 peptide (SEQ ID NO:21) caused an 80% reduction in number of plaques. Similarly, at 10^5 dilution of the PI3 virus stock, 100 μM of the 3F1B35 peptide (SEQ ID NO:23) caused a 70% reduction in number of plaques. Furthermore, the reduction in the number of viral plaques was correlated with increasing concentration of peptide incubated with the virus. […]

PI2 virus [2] = assay type: cell-based, parainfluenza virus type 2
PI2 virus [3] = assay: Inhibition of virus production (released virus titer) in HeLa-T4 cells, PI2; assay type: cell-based, parainfluenza virus type 2; conditions: 48 h post infection; m.o.i. 0.1; 80 μM peptide (FIG. 10); culture supernatant
PI2 virus [4] = assay: Plaque size reduction on Vero cells, peptide in agar overlay; assay type: cell-based, parainfluenza virus type 2; conditions: 80 μM peptide in agar overlay after 1 h absorption; control cells 3 mm; three days
Method: FIGS. 11A and 11B Plaque size reduction by F peptides. Plaque assay was performed on the Vero cells using PI2 virus. After 1 h absorption at 37° C., inoculum was removed and cells overlaid with a 1:1 mixture of 2% white agar with 2XDMEM containing 2% FBS (A) without addition of F peptide, or (B) with addition of 80 μM of 2F1B34 in the overlay agar. Three days after overlaying, the agar was removed and the monolayer of cells was stained with crystal violet.
As another indication of a reduction in spread of virus under condition of multiple cycle replication, the effect of the peptides on plaque size was determined.

PI2F + PI2HN = target: T1, PI2F + PI2HN (Human parainfluenza 2 virus, UniProt P25467); assay type: cell-based, parainfluenza virus type 2; conditions: 18 hr
T1 construct: expressed in transfected cells; host or cells: HeLa-T4 cells infected with vTF7.3
T1 sequence (P25467 107-551 limits assumed): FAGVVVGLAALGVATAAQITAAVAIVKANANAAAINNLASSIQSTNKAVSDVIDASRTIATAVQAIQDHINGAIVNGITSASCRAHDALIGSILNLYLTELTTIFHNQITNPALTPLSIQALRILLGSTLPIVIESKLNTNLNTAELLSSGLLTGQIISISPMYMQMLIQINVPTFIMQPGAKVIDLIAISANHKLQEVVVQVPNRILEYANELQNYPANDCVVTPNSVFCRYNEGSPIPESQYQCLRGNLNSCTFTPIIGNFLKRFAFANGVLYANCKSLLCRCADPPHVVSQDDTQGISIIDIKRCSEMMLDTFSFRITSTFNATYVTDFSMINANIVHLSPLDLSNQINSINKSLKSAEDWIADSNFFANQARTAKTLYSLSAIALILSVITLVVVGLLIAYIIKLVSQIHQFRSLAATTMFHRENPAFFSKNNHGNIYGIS
T1 sequence (P25467 24-106 partner limits assumed): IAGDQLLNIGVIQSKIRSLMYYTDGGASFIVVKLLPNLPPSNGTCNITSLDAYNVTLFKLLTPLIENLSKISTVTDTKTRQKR

PI2 virus [5] = assay: Surface immunofluorescence of PI2 antigen on infected HeLa-T4 cells (viral spread); assay type: cell-based, parainfluenza virus type 2; conditions: low m.o.i. infection, incubated with peptide
Method: Surface immunofluorescence. Indirect immunofluorescence was performed as described by Paterson et al. 1989. In general, HeLa-T4 cells were grown on glass coverslips in 24-well plates and infected with wild-type PI2 virus as described above. At indicated times post infection, cells were washed with ice-cold PBS three times before being fixed with 1% paraformaldehyde in PBS. Rabbit anti-PI2 antibody was added onto cell monolayers, and cells were then incubated at 4° C. for 30 min. Cells were washed with ice-cold PBS three times, and then goat anti-rabbit immunoglobulin G fluorescein-conjugated antibody (Southern Biotechnology Associates, Inc., Birmingham, Ala.) was added and was then incubated at 4° C. for 30 min. Cell surface fluorescence was examined by fluorescence microscopy with a Nikon Optiphot microscope.
To further confirm that the F peptides inhibit viral spread, we examined the distribution of infected cells by surface immunofluorescence at intervals post low m.o.i. infection in the presence or absence of F peptides.

PI3 virus [6] = assay type: cell-based, human parainfluenza type 3 virus
PI3F + PI3HN = PI3F + PI3HN (Human parainfluenza 3 virus, UniProt P06828)
PI3 virus [7] = assay: Inhibition of plaque formation on Vero cells (viral entry), PI3; assay type: cell-based, human parainfluenza type 3 virus; conditions: 100 μM peptide with virus 1 h at 37° C.; 10^5 dilution of the PI3 virus stock; overlay without peptide
Method: as §1, §2

HIV-1 = conditions: Wild et al. 1994; cited from earlier work
[8] = incubated with peptide, concentration not given

PI3F + PI3HN, sequence (P06828 110-539): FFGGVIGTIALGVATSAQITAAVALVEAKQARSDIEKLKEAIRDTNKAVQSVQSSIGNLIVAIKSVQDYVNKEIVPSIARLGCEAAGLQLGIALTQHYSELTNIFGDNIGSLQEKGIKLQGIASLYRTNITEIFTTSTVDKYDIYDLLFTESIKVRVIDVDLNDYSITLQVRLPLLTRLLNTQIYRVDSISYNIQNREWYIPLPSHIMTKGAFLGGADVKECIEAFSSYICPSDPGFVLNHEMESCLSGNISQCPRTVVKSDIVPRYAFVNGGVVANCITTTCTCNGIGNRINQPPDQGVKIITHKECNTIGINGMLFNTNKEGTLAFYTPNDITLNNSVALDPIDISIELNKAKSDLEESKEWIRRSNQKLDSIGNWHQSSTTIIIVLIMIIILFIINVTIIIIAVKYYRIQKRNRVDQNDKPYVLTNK
PI3F + PI3HN, sequence (P06828 19-109): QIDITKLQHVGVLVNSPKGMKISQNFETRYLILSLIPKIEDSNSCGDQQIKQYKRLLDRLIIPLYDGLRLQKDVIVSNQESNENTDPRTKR

Substance: 2F1B34: PI2F peptide from the beginning of the transmembrane domain to include the entire heptad repeat B region (DLSNQINSINKSLKSAEDWIADSNFFANQARTAK)
- reduction in number of plaques, PI2 (PI2 virus [1]; 80 μM peptide with virus 1 h at 37° C., 10^4 dilution of the PI2 virus stock, overlay without peptide): 80%
- EC50 (PI2 virus [1]; Vero cells, Reed-Muench method, read-out: 50% effective concentration (EC50), plaque number, PI2): 53.8 µM
- syncytium formation / inhibition of cell fusion in PI2 infected HeLa-T4 cells (in words) (PI2 virus [2]; [8]): no syncytia were seen
- inhibition of PI2 virus-induced cell fusion (PI2 virus [2]; peptide concentration as low as 80 μM, 24 h post infection, m.o.i. 0.1): completely inhibited
- decrease in the viral titer, PI2 (PI2 virus [3]): 15 fold
- plaque size (diameter) (PI2 virus [4]): 1.5 mm
- inhibition of cell fusion induced by coexpression of PI2 F plus PI2 HN (PI2F + PI2HN): completely inhibit
- cells expressing PI2 antigen on the surface at 18 h (PI2 virus [5]): only few cells were expressing PI2 antigen
- numbers of cells showing PI2 antigen expression on the surface at 24 h and 48 hpi (PI2 virus [5]): no increase in numbers of cells showing antigen expression

Substance: 3F1B35: 35 a.a. PI3F peptide from the beginning of the transmembrane domain to include the entire heptad repeat B (ELNKAKSDLEESKEWIRRSNQKLDSIGNWHQSSTT)
- syncytium formation / inhibition of cell fusion in PI3 infected HeLa-T4 cells (in words) (PI3 virus [6]; [8]): no syncytia were seen
- inhibition of PI3 virus-induced cell fusion (PI3 virus [6]; peptide 100 μM, 24 h post infection): completely inhibited
- inhibition of fusion by PI3 F plus PI3 HN (PI3F + PI3HN): can inhibit
- reduction in number of plaques, PI3 (PI3 virus [7]): 70%

Substance: enfuvirtide
- potency against cell-cell fusion versus infection by cell-free virus (HIV-1): more potent inhibitor of cell-cell fusion than of infection by cell-free virus

Reference: US5969094A, “Anti-paramyxovirus screening method and vaccine” (Emory University, priority 1996, dated 1999)
